This is an account of results in PMC8426393, “Interactions of anti-COVID-19 drug candidates with hepatic transporters may cause liver toxicity and affect pharmacokinetics” (Scientific Reports, 2021).

In one data set the target is T1, OCT1/SLC22A1 (Homo sapiens, UniProt O15245).
T1 construct: expressed in transfected cells; host or cells: HEK-293 cells, lentiviral transduction
T1 sequence (O15245 1-554): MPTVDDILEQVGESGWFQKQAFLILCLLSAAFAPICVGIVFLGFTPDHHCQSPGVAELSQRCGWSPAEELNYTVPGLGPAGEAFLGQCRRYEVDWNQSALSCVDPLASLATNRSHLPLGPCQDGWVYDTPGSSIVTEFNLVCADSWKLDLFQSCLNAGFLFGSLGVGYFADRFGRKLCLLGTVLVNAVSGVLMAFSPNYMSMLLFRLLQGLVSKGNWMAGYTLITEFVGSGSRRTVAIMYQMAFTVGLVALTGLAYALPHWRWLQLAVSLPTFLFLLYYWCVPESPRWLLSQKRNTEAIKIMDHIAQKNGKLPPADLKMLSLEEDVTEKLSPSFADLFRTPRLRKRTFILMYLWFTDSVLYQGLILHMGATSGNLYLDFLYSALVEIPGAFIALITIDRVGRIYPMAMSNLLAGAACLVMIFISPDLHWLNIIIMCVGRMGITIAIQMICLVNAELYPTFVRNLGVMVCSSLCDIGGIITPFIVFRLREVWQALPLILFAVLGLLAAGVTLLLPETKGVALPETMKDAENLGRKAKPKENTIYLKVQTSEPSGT
The experiment in a line: OCT1-dependent metformin uptake in OCT1-overexpressing HEK-293 cells. Type of data set: cell-based. The following applies: for OCT1/SLC22A1 Type of effect: metformin 10 µM, 5 min, 37 °C, HEK-293 cells.

The target of a further data set is T2, MATE1/SLC47A1 (Homo sapiens, UniProt Q96FL8).
T2 construct: expressed in transfected cells; host or cells: MDCKII cells, lentiviral transduction
T2 sequence (Q96FL8 1-570): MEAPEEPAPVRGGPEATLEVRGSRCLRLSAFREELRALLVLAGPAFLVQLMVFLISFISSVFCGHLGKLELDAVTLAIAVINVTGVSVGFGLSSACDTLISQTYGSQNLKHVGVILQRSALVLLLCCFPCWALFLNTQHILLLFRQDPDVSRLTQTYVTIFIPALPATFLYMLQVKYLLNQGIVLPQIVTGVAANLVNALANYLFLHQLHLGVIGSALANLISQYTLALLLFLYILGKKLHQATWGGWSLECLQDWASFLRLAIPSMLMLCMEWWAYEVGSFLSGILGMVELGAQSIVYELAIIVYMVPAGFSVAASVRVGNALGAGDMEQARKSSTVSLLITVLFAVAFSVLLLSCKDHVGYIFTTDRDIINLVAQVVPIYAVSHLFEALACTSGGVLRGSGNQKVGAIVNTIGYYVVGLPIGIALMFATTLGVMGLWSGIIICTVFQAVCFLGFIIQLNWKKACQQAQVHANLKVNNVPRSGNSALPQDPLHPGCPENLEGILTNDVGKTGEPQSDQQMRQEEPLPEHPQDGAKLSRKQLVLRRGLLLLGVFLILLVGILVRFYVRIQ
The experiment in a line: MATE1-dependent metformin uptake in MATE1-overexpressing MDCKII cells. Type of data set: cell-based. The following applies: for MATE1/SLC47A1 Type of effect: metformin 10 µM, 10 min, 37 °C, MDCKII cells.

The target in the next data set is T3, ABCC4/MRP4 (Homo sapiens, UniProt O15439).
T3 construct: purchased Solvo Biotechnology (Budapest, Hungary); host or cells: HEK-293 cells
T3 sequence (O15439 1-1325): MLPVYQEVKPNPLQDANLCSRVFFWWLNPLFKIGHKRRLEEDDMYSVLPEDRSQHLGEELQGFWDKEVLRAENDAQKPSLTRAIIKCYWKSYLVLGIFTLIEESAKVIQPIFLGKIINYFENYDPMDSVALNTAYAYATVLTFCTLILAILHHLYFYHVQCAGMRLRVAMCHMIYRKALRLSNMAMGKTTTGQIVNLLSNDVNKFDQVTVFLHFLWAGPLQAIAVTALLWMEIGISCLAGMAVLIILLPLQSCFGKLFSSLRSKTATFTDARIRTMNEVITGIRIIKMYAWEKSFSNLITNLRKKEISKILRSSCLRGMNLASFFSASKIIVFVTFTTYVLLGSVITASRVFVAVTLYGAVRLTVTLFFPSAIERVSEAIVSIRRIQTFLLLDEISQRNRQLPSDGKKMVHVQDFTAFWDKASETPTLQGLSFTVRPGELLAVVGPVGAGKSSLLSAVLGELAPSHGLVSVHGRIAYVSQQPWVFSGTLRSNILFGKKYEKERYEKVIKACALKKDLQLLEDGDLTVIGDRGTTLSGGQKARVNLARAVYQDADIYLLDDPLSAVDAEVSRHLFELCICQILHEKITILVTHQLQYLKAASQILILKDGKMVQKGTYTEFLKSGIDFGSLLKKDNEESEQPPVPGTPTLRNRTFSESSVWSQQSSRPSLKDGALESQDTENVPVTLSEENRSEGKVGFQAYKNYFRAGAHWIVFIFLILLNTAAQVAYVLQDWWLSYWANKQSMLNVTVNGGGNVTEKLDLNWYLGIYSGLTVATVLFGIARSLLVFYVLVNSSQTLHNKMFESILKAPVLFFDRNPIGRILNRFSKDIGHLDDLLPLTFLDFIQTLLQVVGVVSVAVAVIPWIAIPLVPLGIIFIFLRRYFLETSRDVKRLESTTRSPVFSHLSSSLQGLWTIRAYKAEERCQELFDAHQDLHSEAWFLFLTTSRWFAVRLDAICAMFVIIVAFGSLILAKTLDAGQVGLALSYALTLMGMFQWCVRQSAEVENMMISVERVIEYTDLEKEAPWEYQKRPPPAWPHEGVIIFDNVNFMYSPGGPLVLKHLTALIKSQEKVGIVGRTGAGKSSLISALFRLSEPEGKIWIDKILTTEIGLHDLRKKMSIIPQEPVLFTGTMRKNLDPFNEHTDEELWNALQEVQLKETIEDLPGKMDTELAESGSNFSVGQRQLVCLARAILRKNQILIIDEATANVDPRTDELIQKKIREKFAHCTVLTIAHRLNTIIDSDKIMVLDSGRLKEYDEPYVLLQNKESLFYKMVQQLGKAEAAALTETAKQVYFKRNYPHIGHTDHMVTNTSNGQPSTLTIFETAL
Description: MRP4 vesicular transport: ATP-dependent DHEAS uptake into inverted HEK-293 membrane vesicles. Type of data set: biochemical. Conditions: for inhibition at […]: up to 50 µM drug, read-out: maximum inhibition of MRP4-dependent substrate transport; for ABCC4/MRP4 Type of effect: DHEAS 0.5 µM, 32 °C, HEK-293 vesicles.

For data set [1] the following is noted: cited from earlier work.
[2] abbreviates: human, probe DHEAS (0.5 µM unlabeled plus 0.2 µCi radiolabeled).

Entries after “also recorded” stand apart in the source; their conditions may differ. A value given as a limit tells only on which side of the number the result lay.

`NC(=O)c1nc(F)c[nH]c1=O` [FAV, favipiravir]: the “OCT1/SLC22A1 Type of effect” value on OCT1/SLC22A1 was “no significant inhibitory action”. On MATE1/SLC47A1, the “MATE1/SLC47A1 Type of effect” value is on record as “practically no inhibition”. The inhibition at […] at ABCC4/MRP4 (setting [2]) fell in the range of 10 to 30%.

In the case of `CCC(C)C1OC2(CCC1C)CC1CC(CC=C(C)C(OC3CC(OC)C(OC4CC(OC)C(O)C(C)O4)C(C)O3)C(C)C=CC=C3COC4C(O)C(C)=CC(C(=O)O1)C34O)O2` (centres unmarked) [IVE, ivermectin], the “OCT1/SLC22A1 Type of effect” value at OCT1/SLC22A1 is given as “no significant inhibitory action; also recorded: no effect”. For the same compound, the “MATE1/SLC47A1 Type of effect” value on MATE1/SLC47A1 was “practically no inhibition; also recorded: No effect”. The peak plasma concentration in data set [1] (165 µg/kg IVE dose, ref FDA guideline for stromectol) is 46 ng/mL. Also, at ABCC4/MRP4, the “ABCC4/MRP4 Type of effect” value was “No effect”.

Take `Cc1cccc(C)c1OCC(=O)N[C@@H](Cc1ccccc1)[C@@H](O)C[C@H](Cc1ccccc1)NC(=O)[C@H](C(C)C)N1CCCNC1=O` [LOP, lopinavir]: at OCT1/SLC22A1, the IC50 was above 50 µM; the “OCT1/SLC22A1 Type of effect” value was “less inhibitory and inh”. Moreover, at MATE1/SLC47A1, the half-maximal inhibitory concentration (IC50) was found to be 7.7 µM; the “MATE1/SLC47A1 Type of effect” value is “strong inhibitory action and inh”. For the same compound, in data set [1] (Kaletra 400 mg lopinavir and 100 mg ritonavir in combination), the “peak plasma concentrations in vivo” value was 11 to 20 µM. Also, the “ABCC4/MRP4 Type of effect” value at ABCC4/MRP4 is recorded as “No effect”. On ABCC4/MRP4 (setting [2]), the inhibition at […] lay in the range of 10 to 30%.

Regarding `CCC(CC)COC(=O)[C@H](C)N[P@](=O)(OC[C@H]1O[C@@](C#N)(c2ccc3c(N)ncnn23)[C@H](O)[C@@H]1O)Oc1ccccc1` [REM, remdesivir], the IC50 against OCT1/SLC22A1 was found to be 6.1 µM; against MATE1/SLC47A1 it was 2.3 µM; on ABCC4/MRP4, 2.9 µM. Besides, at OCT1/SLC22A1, the “OCT1/SLC22A1 Type of effect” value is “strong inhibitory effect and inh”. Besides, on OCT1/SLC22A1 (metformin uptake), the “concentration of strong inhibitory effect on OCT1” value is on record as “below 10 µM”. Moreover, the “MATE1/SLC47A1 Type of effect” value at MATE1/SLC47A1 was “strong inhibitory action and inh”. The T1/2 in data set [1] (clearance from the human body) is 1.15 h. Also, the Cmax in data set [1] (intravenous 100 mg, healthy adults, ref FDA label 214787Orig1s000) is 3.7 µM. Further, the half-maximal inhibitory concentration (IC50) at […] at ABCC4/MRP4 (setting [2]) was around 2.3 µM.
